Data: patent US20150082479A1, “CHEMICAL SELECTION OF RESISTANT GAMETES OF PLANTS IN THE FIELD” (PIONEER HI BRED INTERNATIONAL INC, priority 2008, published 2015)

Tests used:
Assay type in all cases: in vivo, maize
[1] = system: non-transgenic gametes; assay: Field application of herbicide to hemizygous glyphosate resistant plants at V12-V19; crosses, progeny seedlings sprayed, survivors counted, chi square of segregation ratios
Protocol: The elimination of non-transgenic gametes was also tested at the V12-V19 stages. Meiosis sorted the transgene of a diploid hemizygous microsporophyte or macrosporophyte into one-half of the gametes. The resulting transgenic construct contained a gene conferring plant resistance or tolerance to a specific herbicide, namely glyphosate. Application of the herbicide treatments at various growth phases eliminated gametes lacking the transgenic construct.
Glyphosate treatments included: V12, V17, V19, V15+V17, and V17+V19. Each application, included splits 3 quarts/A. Only resistant plants were sprayed. Glufosinate treatments included: V12, V17, V18, V19, V15+V17, and V17+V19. Each application, included splits 1.5 quarts/A. Only resistant plants were sprayed.
Pollination of the sprayed resistant plants included: 4 selfed, 4 pollinations from unsprayed resistant, 4 pollinations from susceptible. Pollination of the unsprayed resistant plants included: 4 selfed, 4 pollinations from sprayed resistant, 4 pollinations from susceptible. […]
Survivors were counted and chi square analysis performed to determine whether segregation ratios deviated from the null hypothesis (e.g., 75:25 resistant phenotype for selfs or crosses within the resistant hemizygous hybrids, 50:50 resistant phenotype for crosses between resistant and susceptible hybrids, or 100% mortality for susceptible selfed seed).

[2] = system: wild type gametes; assay: Treated hemizygous plants selfed; progeny scored for level of zygosity via QtPCR
Description: (§1) A series of crosses were made from the treated plants to identify the gamete rouging effects of glyphosate on both pollen and ovules. To characterize the effects on pollen, heterozygous plants treated with glyphosate were crossed onto a wild type inbred. To characterize the effect of glyphosate on ovules, non-treated wild type pollen was crossed to heterozygous plants treated with glyphosate. Finally, the treated heterozygous plants were selfed and tested for zygosity via quantitative PCR.
In the second method of analysis, the glyphosate resistant selfed plants were grown in the field and leaf punched at the V8 stage of development. Leaf tissues were then frozen and scored for their level of zygosity according to standard PCR protocols for glyphosate resistance. The data from the progeny tests was arc sine transformed and submitted to a common analysis of variance. Since the F-test for overall treatments was highly significant, tests of significance between the controls and the various treatments were also conducted.
Plants hemizygous for glyphosate resistance were sprayed with glyphosate and then selfed. The progeny were then scored for level of zygosity via QtPCR. While the results from PCR corroborate data from the leaf dip assays, the magnitude of the response is less (as expressed in FIG. 10).

[3] = system: wild type gametes; assay: Treated heterozygous plants selfed; progeny leaf dip test; settings: all treatments except V12 at the lowest rate, non-treated 75% (FIG. 9)
Description: (§2) Four row plots of a heterozygous inbred for glyphosate resistance were established. At the V10, V12, V14 and V10+V14 stages of plant development, glyphosate was broadcast to the center two rows. The WeatherMax glyphosate formulation was applied at 0, 1.6 and 3.2 l/Ha, such rates corresponding to 0, 1 and 2 times the normal commercial rates in corn production. To assure there was no glyphosate drift on the non-treated controls, non-treated plants were separated by 16 border rows.
as §1
The progeny of the various crosses from Example 2 were evaluated by two methods. In the first method, 25 seeds per replication (4 replications in total) were planted into rag dolls and grown at 25° C. in darkness four days. After this time, the rag dolls were transferred to a greenhouse to allow the shoots to turn green. […]

[4] = system: wild type ovules; assay: Non-treated wild type pollen crossed to treated heterozygous plants; progeny leaf dip test
Description: as §2, §1
(§3) The progeny of the various crosses from Example 2 were evaluated by two methods. In the first method, 25 seeds per replication (4 replications in total) were planted into rag dolls and grown at 25° C. in darkness four days. After this time, the rag dolls were transferred to a greenhouse to allow the shoots to turn green. After four days in the greenhouse, seedlings for each rag doll were dipped in a 2% v/v solution of RoundUp Ultra (concentration corresponding to common concentrations in spray applications at the field level). After one week, individual plants were rated as normal, dead or abnormal. Normal plants were assumed to carry the gene for tolerance to glyphosate, dead plants were assumed to be wild type.
The effects of glyphosate on wild type ovules were less pronounced than for pollen gametes (as expressed in FIG. 8). In the control treatment, untreated heterozygous plants were pollinated with homozygous wild type pollen. Expected segregation ratios for the progeny of this cross would be 50% resistant and 50% susceptible. Here, the control progeny segregated at 54% resistant, statistically equal to the expected ratio of 50%. […] At the highest rate of glyphosate, the segregation of progeny was clearly disturbed. High rates applied at the V14 stage produced progeny nearly 100% resistant, while applications made before V14 were intermediate.

[5] = system: wild type pollen; assay: Treated heterozygous plants crossed onto wild type inbred; progeny leaf dip test (rag doll, 2% v/v RoundUp Ultra)
Description: as §2, §1, §3
The crosses separated the effects of glyphosate on pollen and ovule gametes. To separate effects on pollen, heterozygous plants were sprayed with glyphosate and pollen collected from treated plants was crossed onto homozygous wild type plants. […]

Structure (SMILES): O=C(O)CNCP(=O)(O)O [glyphosate]
- elimination of non-transgenic gametes ([1]; application at V12, 3 quarts/A, glyphosate resistant plants (FIG. 1)): eliminated most non-transgenic female and male gametes
- elimination of non-transgenic gametes ([1]; application at V15 or later, 3 quarts/A, glyphosate resistant plants (FIGS. 2-5)): primarily eliminated non-transgenic female gametes
- ratio of homozygous wild type plants in selfed progeny (QtPCR) ([2]; sprayed then selfed (FIG. 10)): significantly reduced the ratio of homozygous wild type plants
- percentage of homozygous glyphosate resistant plants in selfed progeny (QtPCR) ([2]; two pass applications at the highest rates (FIG. 10)): produced the greatest percentage of homozygous glyphosate resistant plants
- progeny resistant to glyphosate [3]: ~100%
- progeny resistant to glyphosate ([4]; high rates applied at V14, expected 50% if no effect (FIG. 8)): ~100%
- progeny resistant to glyphosate ([4]; highest rate, applications made before V14 (FIG. 8)): intermediate
- segregation of progeny ([4]; treated at V10 and V12 at the lowest rate, pollinated with wild type pollen (FIG. 8)): segregated as expected if glyphosate had no affect on wild type ovules
- progeny resistant to glyphosate ([4]; two pass program V10+V14 (FIG. 8)): ~100%
- effect on wild type pollen: dependence on rate or time of application ([5]; 1.6 vs 3.2 l/Ha, V10, V12, V14, V10+V14): not affected by rate or time of application
- rouging of wild type pollen (leaf dip test) ([5]; V10, V12, V14, V10+V14, 1.6 and 3.2 l/Ha (FIG. 7)): highly effective in rouging wild type pollen
- progeny resistant to glyphosate ([5]; treated plants crossed to wild type ovules, all rates and timings, expected 50% if no effect (FIG. 7)): ~100%
